We go through 4 compounds from patent US7049322B2 (priority 2002, dated 2006).

A short description of series [1]: Moisture sorption/desorption (VTI SGA-100 moisture balance). Format: physicochemical. The note with it: for hygroscopicity: 5 to 95% RH. An excerpt: The samples were not dried prior to analysis.
The nature of series [2]: XRPD after storage in a closed vial at ambient conditions. Format: physicochemical. Conditions: 31 days. Here is the method:
X-ray powder diffraction analyses were carried out on a Shimadzu XRD-6000 X-ray powder diffractometer using Cu Kα radiation having a wavelength of 1.5406 Å. The instrument is equipped with a fine-focus X-ray tube. The tube power was set by setting potential difference at 40 kV, and current 40 mA. The divergence and scattering slits were set at 1° and the receiving slit was set at 0.15 mm. Diffracted radiation was detected by a NaI scintillation detector. A theta-two theta continuous scan at 3°/min (0.4 sec/0.02° step) from 2.5 to 40 °2θ was performed. A silicon standard was analyzed each day to check the instrument alignment. Each sample was analyzed in a quartz sample holder. A variable temperature (VT-XRPD) experiment was performed on one form. The sample was prepared for analysis by pressing it into a variable temperature holder. A powder pattern was collected initially at 35° C. and again, after heating, at 200° C.

A short description of series [3]: Dehydration/desolvation under vacuum, XRPD. In kind it is physicochemical. An excerpt:
The characterization of this weight loss as THF solvent is supported by the ^1H NMR data.

For series [4] the following is noted: clinical trials, cited from earlier work.

Each structure is given as a SMILES string.

As for `CC[C@@]1(O)C(=O)OCc2c1cc1n(c2=O)Cc2cc3c([N+](=O)[O-])cccc3nc2-1` [Form A, 9-nitrocamptothecin], in series [1] (5% RH), the “water gained upon equilibration to 5% RH” value worked out at 0.01%. Besides, the hygroscopicity entry in series [1] was “not hygroscopic”.

Take `CC[C@@]1(O)C(=O)OCc2c1cc1n(c2=O)Cc2cc3c([N+](=O)[O-])cccc3nc2-1` [Form B, 9-nitrocamptothecin]: the “stability of the crystalline polymorph (XRPD pattern unchanged)” value in series [2] is on record as “relatively stable”. In addition, the “water lost upon equilibration at 5% RH” value in series [1] (5% RH) is listed as 0.98%. The hygroscopicity entry in series [1] is reported as “relatively hygroscopic”.

Take `CC[C@@]1(O)C(=O)OCc2c1cc1n(c2=O)Cc2cc3c([N+](=O)[O-])cccc3nc2-1` [Form C, 9-nitrocamptothecin]: the “form after attempted desolvation” value in series [3] was “becomes amorphous”.

`CC[C@@](O)(C(=O)[O-])c1cc2n(c(=O)c1CO)Cc1cc3ccccc3nc1-2.[Na+]` [Sodium camptothecin]: the side effects entry in series [4] (administered intravenously) is “unpredictable side effects such as myelosuppression and hemorrhagic cystitis”. In addition, in series [4] (early 1970's), the antineoplastic activity entry is listed as “found to have antineoplastic activity”.
